Consider 60 molecules from the METLIN SMRT retention time set (Domingo-Almenara et al. 2019).

A short description of this data set: gradient 5% acetonitrile 3 min, to 50% in 2 min, to 85% in 15 min, held 3 min, 100 µL/min. The following applies: column: Zorbax Extend-C18 2.1 x 50 mm; eluents: water / acetonitrile, 0.1% formic acid. Summed up: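 The system's dead and dwell volumes were 40 μL and 900 μL, with a Zorbax Extend-C18 column (2.1 × 50 mm, 1.8 μm) run at 100 μL/min in water and acetonitrile containing 0.1% formic acid each. Pure standards were analyzed in mixtures of ~100 molecules by HPLC–quadrupole time-of-flight mass spectrometry in positive and negative ionization mode. Retention time was assigned from computationally picked, manually inspected adduct peaks.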
`Cc1cc(C2CCCN2C(=O)c2c(F)cccc2Cl)on1` (stereo not given) yielded an RP-LC retention time of 773 s.

Take `CCN(CCCNS(=O)(=O)c1ccc2c(c1)CCCC(=O)N2)c1ccccc1`: the RP-LC retention time came out at 618 s.

Take `O=C(Cc1nc(-c2ccccn2)n[nH]1)Nc1ccc(F)cc1F`: the RP-LC retention time turned out to be 652 s.

`Cc1ccccc1CNc1nnc(-c2nc(C3CC3)no2)c2ccccc12` came in with an RP-LC retention time of 936 s. The same measure for `Cn1c(=O)c(N2CCC(NC(=O)Nc3ccccc3F)CC2)nc2ccccc21`: 910 s; for `CCCCSc1cc(=O)[nH]c(N)n1`: 700 s.

In turn, `COc1cccc(S(=O)(=O)N2CCC3(CC2)C(OC)C(=O)N3c2cccc(F)c2)c1` (stereo not given) came in with an RP-LC retention time of 1040 s. Take `Cn1nccc1C(=O)N1CC2CN(S(=O)(=O)c3cccc(F)c3)CC(C1)O2`: the RP-LC retention time is 693 s. The same measure for `Cc1oc(-c2[nH]ncc2C(=O)N2CCCC2)cc1S(=O)(=O)Nc1cccc(F)c1`: 704 s.

Molecule `Cc1nc(-c2ccccc2)nc2c1CCC(=O)N2Cc1cccs1` registered an RP-LC retention time of 1120 s. Under `Cc1cccc(OCCc2noc(C3CCNC3)n2)c1` (stereo not given) stands 646 s; under `CCOC(=O)N1CCN(C(=O)Cn2nc(-c3ccccc3)cc(N)c2=O)CC1`, 673 s; under `CC(C)N1CCN(Cc2ccc(C(=O)NC3CCCCCC3)cc2)C(=O)C1=O`, 749 s. Under `Cc1cccc(-c2noc(CSc3nc4cc5c(cc4c(=O)n3Cc3ccccc3)OCO5)n2)c1` stands 1330 s; under `Cc1ccccc1Cn1c(CN2CCC(C(=O)NC(C)Cc3ccco3)CC2)cc2ccccc21` (stereo not given), 833 s; under `COc1ccc(NC(=O)Cn2nc(N3CCSCC3)c3ccccc3c2=O)cc1Cl`, 949 s. Take `CCOC(=O)c1cc(S(=O)(=O)N2CCCC2C(=O)Nc2ccc3c(c2)OCCO3)cn1C` (stereo not given): the RP-LC retention time was 869 s. `Cn1cc(-c2cc3n(n2)CCC(=O)N3CC(=O)NC2CCCc3ccccc32)c2ccccc21` (stereo not given) registered an RP-LC retention time of 882 s. The molecule `CCn1c(CN(C)C(=O)Nc2ccc(Br)cc2)nc2cc(C(=O)N(C)C)ccc21` had an RP-LC retention time of 657 s. Regarding `Clc1ccc(-c2ccc(CNc3nn[nH]n3)o2)c(Cl)c1`, the RP-LC retention time was 845 s. Under `Cc1oc(-c2ccccc2)nc1CN1C(=O)C(O)(c2cccc(F)c2)c2ccccc21` (stereo not given) stands 1100 s. The same measure for `O=C(CCc1csc(NC(=O)c2ccc[nH]c2=O)n1)NCC1CCCO1` (stereo not given): 573 s. The same measure for `Cc1cnc(CC2CCN(S(=O)(=O)c3cn(C)cn3)C2)n1Cc1ccccc1` (stereo not given): 590 s; for `CCc1ccc(C(=O)c2cnc3ccc(OC)cc3c2N2CCN(CC)CC2)cc1`: 619 s. For `Cc1ccc(Cn2c(=O)c(N3CCC(NC(=O)NCC4CCCO4)CC3)nc3cccnc32)cc1` (stereo not given), the RP-LC retention time was determined as 929 s. Under `COc1ccc(Cl)cc1S(=O)(=O)NCCc1cn(C)c2ncccc12` stands 764 s; under `COc1ccc(-c2nnc(N3CCC(C(=O)NC(C)c4ccc(C)cc4C)CC3)o2)cc1` (stereo not given), 934 s; under `CCc1nccn1Cc1nc(-c2ccc(Br)cc2)no1`, 677 s. `O=C(NCCC1=CCCCC1)C1CCCN(c2nc3ccsc3c(=O)n2Cc2ccc(F)cc2)C1` (stereo not given) displayed an RP-LC retention time of 1090 s.

As to `CCCNC(=O)CCc1nc2ccccc2n(CC(=O)Nc2ccc(C(C)C)cc2)c1=O`, the RP-LC retention time stood at 891 s. The same measure for `Cc1nc(C)c(C(=O)N2CCCC2c2nc(CCOCC3CCCC3)no2)s1` (stereo not given): 905 s; for `Cc1nc(-c2nnc(NC(=O)c3cnccn3)o2)cs1`: 567 s. With `O=C(NCC1CCS(=O)(=O)C1)c1cc(-c2ccccc2)on1` (stereo not given), the RP-LC retention time was 1010 s.

`O=C(CN1C(=O)COc2ccc(C(=O)N3CCCCC3)cc21)NC1CCCCCC1` displayed an RP-LC retention time of 782 s. Under `CCOC(=O)C1=CN(Cc2ccccc2)C=C(C(=O)OCC)C1c1ccccc1` stands 1130 s; under `CCOc1cc(=O)c(C(=O)N2CCC(C(N)=O)CC2)nn1-c1ccc(F)cc1`, 595 s; under `O=C(C1CCN(c2ncnc3c2oc2ccccc23)CC1)N1CCN(c2ccc(Cl)cc2)CC1`, 891 s.

`CCN(CC)C(=O)CCC1CCCN(c2cc(NC3CC3)ncn2)C1` (stereo not given) had an RP-LC retention time of 643 s. As for `CCc1cccc(C)c1Nc1c(-c2ccc(Cl)cc2)nc2nc(C)cc(C)n12`, the RP-LC retention time was 985 s. Turning to `COCc1nc(CCNC(=O)NCC(C)C)no1`, the RP-LC retention time was 626 s.

`O=C(c1ccco1)N1CCCC1c1nc(-c2ccc(F)cc2)no1` (stereo not given) displayed an RP-LC retention time of 875 s. Under `CN(C)c1ccc2c(c1)OC(N)=C(C#N)C2c1cccc(C(F)(F)F)c1` (stereo not given) stands 1020 s. Under `CCCS(=O)(=O)N1CCO[C@@H](COC)[C@@H]1c1ccccc1` stands 850 s; under `COCC(C)NC(=O)c1cc2c(s1)N(CC1CC1)CCCC2` (stereo not given), 976 s. Molecule `Cn1c(=O)c2c(ncn2CC(=O)N2CCC(CCOc3ccc(F)cc3)C2)n(C)c1=O` (stereo not given) gave an RP-LC retention time of 748 s. For the molecule `Cc1c(C(=O)NC2CC2)cnn1-c1cc(-c2nc(C3CC3)no2)ccn1`, the RP-LC retention time is 843 s. The molecule `CCn1cc(C)c(C(=O)O)c1CC(=O)NCCCN1CCOCC1` yielded an RP-LC retention time of 588 s. `Cc1ccn2c(=O)c(NC(=O)c3ccco3)c(C)nc2c1` yielded an RP-LC retention time of 544 s. Regarding `Fc1ccc(-c2nc(-c3cn(-c4ccccc4)nn3)no2)cc1`, the RP-LC retention time is 607 s. Under `CCOC(=O)c1c(C)[nH]c(C(=O)N2CCCC(C(=O)NCCCN3CCCCCC3)C2)c1C` (stereo not given) stands 624 s; under `CN(C)CCNC(=O)C1CCCN(c2ccc(=O)n(-c3cccc(Cl)c3)n2)C1` (stereo not given), 929 s; under `Cc1ccc(-n2nc(N3CCCC(C(=O)NCc4ccccc4)C3)ccc2=O)cc1Cl` (stereo not given), 901 s.

Turning to `Cc1noc(-c2ccnc(-n3ncc(C(=O)NC4CCCC4)c3C)c2)n1`, the RP-LC retention time amounted to 836 s.

For the molecule `Cc1ccc(NC(=O)C(C)Oc2cc(C(F)(F)F)c3c(C)nn(C)c3n2)c(C)c1` (stereo not given), the RP-LC retention time came to 920 s. `O=C(CC(=O)N1CCN(c2ccccc2)CC1)Nc1ccc2nc3n(c(=O)c2c1)CCCCC3` yielded an RP-LC retention time of 720 s. Take `O=C(NCC1CC1)c1cccc(N2CCNC(c3ccccc3)C2)n1` (stereo not given): the RP-LC retention time is 619 s. Take `Cc1ccc(-c2ccc3nnc(CCC(=O)NCCCOC(C)C)n3n2)cc1C`: the RP-LC retention time came out at 795 s. The same measure for `O=C1CCCc2c1cc(C(=O)N1CCOCC1)c(=O)n2-c1ccc(C(F)(F)F)cc1`: 723 s; for `Cn1cc(S(=O)(=O)N2CCCC2)cc1C(=O)N1CCn2c1nc1ccccc12`: 652 s. The molecule `CN1CCN(Cc2nc3cc(NC(=O)C4CCCCC4)ccc3n2C)CC1` came in with an RP-LC retention time of 574 s.
